# ChEMBL document CHEMBL1146431, “Isolation and structure elucidation of ardisenone: a new, cytotoxic alkenylphenol from Ardisia iwahigensis” (J Nat Prod, 1997)
# What was measured:
# Type in all cases: functional, cell-based
# [1] = Cytotoxicity against human vinblastine-resistant KBV1 cells by SRB assay in absence of vinblastine; settings: KB-V1
# [2] = Cytotoxicity against human BC1 cells by SRB assay
# LNCaP = assay: Cytotoxicity against human LNCAP cells by SRB assay
# [3] = Cytotoxicity against human vinblastine-resistant KBV1 cells by SRB assay in presence of vinblastine; settings: KB-V1
# KB = assay: Cytotoxicity against human KB cells by SRB assay
# Lu1 = assay: Cytotoxicity against human Lu1 cells by SRB assay
# Col2 = assay: Cytotoxicity against human Col2 cells by SRB assay
smiles,measurement,setting,value
COc1cc(O)cc(CC(=O)CCC/C=C\CCCCCCCCC(=O)c2cc(O)cc(OC)c2)c1 [ARDISENONE],IC50,[1],6.9 µg/mL
same,IC50,[2],8.5 µg/mL
same,IC50,LNCaP,11 µg/mL
same,IC50,[3],8 µg/mL
same,IC50,KB,13 µg/mL
same,IC50,Lu1,4.9 µg/mL
same,IC50,Col2,15 µg/mL
